Experimental data reported in patent US12497365B2, “4-pyridinyl formamide compound or derivative thereof, preparation method therefor, herbicidal composition and use thereof” (Qingdao Kingagroot Chemical Compound Co., Ltd., priority 2019, dated 2025).

Experiments:
Assay in all cases: Weeding effect in post-emergence stage
Assay type in all cases: in vivo
Settings in all cases: active ingredient 2000 g/ha, 3 weeks after application, fresh weight control rate
Abutilon theophrasti = test system: Abutilon theophrasti
Excerpt: (§1) The activity level criteria for plant damage (i.e., growth control rate) are as follows:
(§2) The above growth control rates are fresh weight control rates.
(§3) Experiment on weeding effect in post-emergence stage: monocotyledonous and dicotyledonous weed seeds and major crop seeds (wheat, corn, rice, soybean, cotton, oilseed rape, millet, sorghum) were placed in plastic pots filled with soil, then covered with 0.5-2 cm of soil, allowed to grow in a good greenhouse environment. After 2 weeks of sowing, the test plants were treated in the 2-3 leaf stage. The tested compounds of the present invention were respectively dissolved in acetone at the dosage of 2000, 1000, 500, 250, 125 g/ha, then added with Tween 80 and 1.5 liter/ha of emulsifiable concentrate of methyl oleate as synergist, diluted with a certain amount of water to obtain a solution with a certain concentration, and sprayed with a spray tower onto the plants. After the application, the plants were cultured for 3 weeks in the greenhouse, and then the experimental results were listed in Table 1.

[1] = test system: Amaranthus retroflexus L.
Excerpt: as §1, §2, §3

Chenopodium album = test system: Chenopodium album
Excerpt: as §1, §2, §3

Descurainia sophia = test system: Descurainia sophia
Excerpt: as §1, §2, §3

SMILES	Weeding effect, activity level (growth control rate), Abutilon theophrasti (Abutilon theophrasti)	Weeding effect, activity level (growth control rate), Amaranthus retroflexus L. [1]	Weeding effect, activity level (growth control rate), Chenopodium album (Chenopodium album)	Weeding effect, activity level (growth control rate), Descurainia sophia (Descurainia sophia)
Cn1nnnc1NC(=O)c1ccnc(-c2ccc(CBr)cc2)c1Cl [Compound 1-24]	5 (Level 5: growth control rate is above 85%)	5 (Level 5: growth control rate is above 85%)	5 (Level 5: growth control rate is above 85%)	5 (Level 5: growth control rate is above 85%)
Cn1nnnc1NC(=O)c1ccnc(-c2ccc(I)cc2)c1Cl [Compound 1-25]	5 (Level 5: growth control rate is above 85%)	5 (Level 5: growth control rate is above 85%)	5 (Level 5: growth control rate is above 85%)	5 (Level 5: growth control rate is above 85%)
Cn1nnnc1NC(=O)c1ccnc(-c2cccc(C(F)(F)F)c2)c1Cl [Compound 1-26]	5 (Level 5: growth control rate is above 85%)	5 (Level 5: growth control rate is above 85%)	5 (Level 5: growth control rate is above 85%)	5 (Level 5: growth control rate is above 85%)
Cn1nnnc1NC(=O)c1ccnc(-c2ccc(C(F)(F)F)cc2)c1Cl [Compound 1-27]	5 (Level 5: growth control rate is above 85%)	5 (Level 5: growth control rate is above 85%)	5 (Level 5: growth control rate is above 85%)	5 (Level 5: growth control rate is above 85%)
COc1ccccc1-c1nccc(C(=O)Nc2nnnn2C)c1Cl [Compound 1-28]	5 (Level 5: growth control rate is above 85%)	5 (Level 5: growth control rate is above 85%)	5 (Level 5: growth control rate is above 85%)	5 (Level 5: growth control rate is above 85%)
COc1cccc(-c2nccc(C(=O)Nc3nnnn3C)c2Cl)c1 [Compound 1-29]	5 (Level 5: growth control rate is above 85%)	5 (Level 5: growth control rate is above 85%)	5 (Level 5: growth control rate is above 85%)	5 (Level 5: growth control rate is above 85%)
COc1ccc(-c2nccc(C(=O)Nc3nnnn3C)c2Cl)cc1 [Compound 1-30]	5 (Level 5: growth control rate is above 85%)	5 (Level 5: growth control rate is above 85%)	5 (Level 5: growth control rate is above 85%)	5 (Level 5: growth control rate is above 85%)
Cn1nnnc1NC(=O)c1ccnc(-c2ccccc2OC(F)(F)F)c1Cl [Compound 1-31]	5 (Level 5: growth control rate is above 85%)	5 (Level 5: growth control rate is above 85%)	5 (Level 5: growth control rate is above 85%)	5 (Level 5: growth control rate is above 85%)
Cn1nnnc1NC(=O)c1ccnc(-c2cccc(OC(F)(F)F)c2)c1Cl [Compound 1-32]	5 (Level 5: growth control rate is above 85%)	5 (Level 5: growth control rate is above 85%)	5 (Level 5: growth control rate is above 85%)	5 (Level 5: growth control rate is above 85%)
Cn1nnnc1NC(=O)c1ccnc(-c2ccc(OC(F)(F)F)cc2)c1Cl [Compound 1-33]	5 (Level 5: growth control rate is above 85%)	5 (Level 5: growth control rate is above 85%)	5 (Level 5: growth control rate is above 85%)	5 (Level 5: growth control rate is above 85%)
Cn1nnnc1NC(=O)c1ccnc(-c2ccccc2O)c1Cl [Compound 1-34]	5 (Level 5: growth control rate is above 85%)	5 (Level 5: growth control rate is above 85%)	5 (Level 5: growth control rate is above 85%)	5 (Level 5: growth control rate is above 85%)
Cn1nnnc1NC(=O)c1ccnc(-c2ccc(O)cc2)c1Cl [Compound 1-35]	5 (Level 5: growth control rate is above 85%)	5 (Level 5: growth control rate is above 85%)	5 (Level 5: growth control rate is above 85%)	5 (Level 5: growth control rate is above 85%)
Cn1nnnc1NC(=O)c1ccnc(-c2cccc(CO)c2)c1Cl [Compound 1-36]	5 (Level 5: growth control rate is above 85%)	5 (Level 5: growth control rate is above 85%)	5 (Level 5: growth control rate is above 85%)	5 (Level 5: growth control rate is above 85%)
Cn1nnnc1NC(=O)c1ccnc(-c2ccc(N)cc2)c1Cl [Compound 1-37]	5 (Level 5: growth control rate is above 85%)	5 (Level 5: growth control rate is above 85%)	5 (Level 5: growth control rate is above 85%)	5 (Level 5: growth control rate is above 85%)
Cn1nnnc1NC(=O)c1ccnc(-c2ccccc2[N+](=O)[O-])c1Cl [Compound 1-38]	5 (Level 5: growth control rate is above 85%)	5 (Level 5: growth control rate is above 85%)	5 (Level 5: growth control rate is above 85%)	5 (Level 5: growth control rate is above 85%)
Cn1nnnc1NC(=O)c1ccnc(-c2ccc(C(=O)O)cc2)c1Cl [Compound 1-39]	5 (Level 5: growth control rate is above 85%)	5 (Level 5: growth control rate is above 85%)	5 (Level 5: growth control rate is above 85%)	5 (Level 5: growth control rate is above 85%)
COC(=O)c1ccc(-c2nccc(C(=O)Nc3nnnn3C)c2Cl)cc1 [Compound 1-40]	5 (Level 5: growth control rate is above 85%)	5 (Level 5: growth control rate is above 85%)	5 (Level 5: growth control rate is above 85%)	5 (Level 5: growth control rate is above 85%)
Cn1nnnc1NC(=O)c1ccnc(-c2ccc(C(=O)OC(C)(C)C)cc2)c1Cl [Compound 1-41]	5 (Level 5: growth control rate is above 85%)	5 (Level 5: growth control rate is above 85%)	5 (Level 5: growth control rate is above 85%)	5 (Level 5: growth control rate is above 85%)
CSc1ccccc1-c1nccc(C(=O)Nc2nnnn2C)c1Cl [Compound 1-42]	5 (Level 5: growth control rate is above 85%)	5 (Level 5: growth control rate is above 85%)	5 (Level 5: growth control rate is above 85%)	5 (Level 5: growth control rate is above 85%)
CC(C)Sc1ccc(-c2nccc(C(=O)Nc3nnnn3C)c2Cl)cc1 [Compound 1-43]	5 (Level 5: growth control rate is above 85%)	5 (Level 5: growth control rate is above 85%)	5 (Level 5: growth control rate is above 85%)	5 (Level 5: growth control rate is above 85%)
Cn1nnnc1NC(=O)c1ccnc(-c2cccc(S(C)(=O)=O)c2)c1Cl [Compound 1-44]	5 (Level 5: growth control rate is above 85%)	5 (Level 5: growth control rate is above 85%)	5 (Level 5: growth control rate is above 85%)	5 (Level 5: growth control rate is above 85%)
